This note sets out measurements from patent US20120277177A1, “CRYSTALLINE PHASES OF 5,6-DICHLORO-2-(ISOPROPYLAMINO)-1-BETA-RIBOFURANOSYL-1H-BENZIMIDAZOLE” (priority 2010, published 2012).

This series can be described thus: Solid-state stability on storage in the well-plate under ambient temperature and relative humidity. Format: physicochemical. The following applies: for form change (desolvation / transformation) after storage: storage in the well-plate under ambient temperature and relative humidity for approximately 3 weeks. The source says:
The invention relates to the anhydrate crystalline Form VIII, hydrates and solvates both in pure form and in admixture with other anhydrate forms, hydrates or solvates of the compound of formula (I).

The structures appear in SMILES notation.

For the compound `CC(C)Nc1nc2cc(Cl)c(Cl)cc2n1[C@H]1O[C@@H](CO)[C@H](O)[C@@H]1O` [t-butylmethyl ether solvate 2, 5,6-dichloro-2-(isopropylamino)-1-(β-L-ribofuranosyl)-1H-benzimidazole], the “form change (transformation) after storage” value (approximately 4 weeks of storage under ambient conditions) is listed as “partially transformed into Form VI”. In the case of `CC(C)Nc1nc2cc(Cl)c(Cl)cc2n1[C@H]1O[C@@H](CO)[C@H](O)[C@@H]1O` [acetonitrile solvate, 5,6-dichloro-2-(isopropylamino)-1-(β-L-ribofuranosyl)-1H-benzimidazole], the “form change (desolvation / transformation) after storage” value was “completely desolvated and transformed to the anhydrate Form V”. In the case of `CC(C)Nc1nc2cc(Cl)c(Cl)cc2n1[C@H]1O[C@@H](CO)[C@H](O)[C@@H]1O` [n-propyl acetate solvate, 5,6-dichloro-2-(isopropylamino)-1-(β-L-ribofuranosyl)-1H-benzimidazole], the “form change (desolvation / transformation) after storage” value is “partially desolvated and transformed to the anhydrate Form VI”.
